Assay: xn = mol fraction of the nth substance listed
Conditions: 101.3 kPa, Liquid; for viscosity: Capillary tube (Ostwald / Ubbelohde) method

CC(O)CCO (stereo not drawn) [1,3-butanediol] + O
Conditions	mass density, 308.15 K [kg/m3]	mass density, 318.15 K [kg/m3]	speed of sound, 308.15 K [m/s]	speed of sound, 318.15 K [m/s]	viscosity, 308.15 K [mPa·s]	viscosity, 318.15 K [mPa·s]
x2 = 0.045	995.14	989.57	1500.6	1474.8	–	28.95
x2 = 0.1445	997.4	991.66	1520.3	1492.5	–	25.16
x2 = 0.2499	999.97	994.06	1538.6	1509.5	–	20.85
x2 = 0.3526	1002.45	996.38	1561.8	1531.8	–	16.64
x2 = 0.4519	1004.84	998.64	1585.2	1554.7	–	12.79
x2 = 0.5035	1006.14	999.86	1597	–	–	10.94
x2 = 0.5563	1007.52	–	1609.3	–	–	9.164
x2 = 0.6507	1009.99	–	1634.5	–	–	6.346
x2 = 0.7518	1011.69	–	1666.3	–	–	3.879
x2 = 0.8477	1010.07	–	1684	–	–	2.11
x2 = 0.9081	1005.92	–	1665.1	–	–	1.304
x2 = 0.9152	1005.23	–	1659.9	–	–	1.226
x2 = 0.9253	1004.18	–	1657.3	–	–	1.122
x2 = 0.9355	1003.02	–	1640.7	–	–	1.024
x2 = 0.9521	1000.96	–	1619.1	–	–	0.881
x2 = 0.9543	1000.67	–	1615.8	–	–	0.864
x2 = 0.9597	999.94	–	1607.2	–	1.318	0.824
x2 = 0.9699	998.52	–	1589	–	1.15	0.753
x2 = 0.9804	996.99	–	1567.4	–	0.99	0.69
x2 = 0.9901	995.53	–	1544.6	–	0.851	0.639
x2 = 0.9924	995.19	–	1536.8	–	0.819	0.628
x2 = 0.9955	994.71	–	1530.7	–	0.778	0.615
